Assay results as given in US20240197828A1, “Chimeric molecule to treat sepsis and other inflammatory conditions” (THE FEINSTEIN INSTITUTES FOR MEDICAL RESEARCH, priority 2022, published 2024).
Residues, ends and D or L forms follow the SMILES beside them.

Tested on: WT mice
Assay: CLP-induced polymicrobial sepsis, 20 hours
Type: in vivo, mouse
Details: vs vehicle
Description: FIG. 6A-6M: MOP3 ameliorates inflammation, lung injury, and improves survival in sepsis. WT mice subjected to CLP-induced sepsis with MOP3 treatment (10 μg/kg) or vehicle (volume-equivalent). After 20 hours, blood and lung tissue collected for respective analyses. (A-C) Serum was analyzed for systemic eCIRP, IL-6, and TNFα levels by ELISA. (D-F) Serum was analyzed for ALT, AST, and LDH by calorimetric assays. (G-I) Lung tissue was frozen and mRNA expression of IL-6, TNFα, and IL-1β was measured by PCR and MPO by calorimetric assay. (J) Lung tissue was frozen and analyzed for MPO levels by calorimetric assay. (K) Lungs were sectioned, imaged for histologic injury by H&E staining, and performed lung injury scoring. (L) Sectioned lungs were stained for TUNEL positive cells and cell counts were quantified. All experiments were performed 3 times, and all data were used for analysis (N=6-18). Data are expressed as mean±SEM and compared by one-way ANOVA and SNK test. *p<0.05 vs. sham, #p<0.05 vs. CLP vehicle. (M) WT mice subjected to CLP-induced sepsis with MOP3 treatment (10 μg/kg) or vehicle (volume equivalent) and monitored for 10 days for humane endpoints, and differences in survival were determined (N=17 per group). *p<0.05 vs. CLP vehicle.
Adult (8-12 weeks) male, C57BL/6 wild-type (WT) mice (20-30 g) were purchased from Charles River Laboratories. MFG-E8 knockout mice (MFG-E8^−/−) were originally obtained from Dr. Shigekazu Nagata, Osaka University of Japan, and bred following our Institutional Animal Care and Use Committee (IACUC) policies. Age-matched, healthy mice were used in all experiments. Animals were randomly assigned to sham, vehicle, or treatment groups. Concerted effort was made to ensure that a limited number of animals were used in each experiment. All experiments were previously approved by IACUC of the Feinstein Institutes for Medical Research (Manhasset, NY) and were performed in accordance with the guidance for the use of experimental animals by the National Institutes of Health (Bethesda, MD). For the design of in vivo models, sample size calculation was driven by variability, effect size, significance level and power as determined through performance of early feasibility and optimization pilot studies.
Sepsis was induced in mice by cecal ligation and puncture (CLP) as previously described (4). Briefly, mice were anesthetized with inhaled isoflurane to achieve adequate anesthesia. After placement in the supine position, the abdomen was shaved and disinfected. A 2-cm midline laparotomy was created. The cecum was located and eviscerated from the abdomen and then ligated with a 4-0 silk suture approximately 1 cm proximal from the terminal cecal extremity. For short-term experiments using this polymicrobial sepsis model, the cecum was punctured twice (through and through) with a 22G needle. Careful extraction of a consistent, small amount of cecal content was extruded, and the cecum along with cecal content was returned to the peritoneal cavity. […] All comparative surgeries were performed on the same day to reduce severity-variability. All short-term experiments were repeated at least three-times to ensure reproducibility of relative markers of inflammation and injury.
For respective experiments, either WT or MFG-E8 knockout mice were subjected to CLP. For treatment experiments, mice were randomly assigned to either vehicle or treatment groups. MOP3 ([…]) was given via retroorbital (r.o.) injection at time of surgery, immediately following abdominal closure. Vehicle groups received an equivalent volume of normal saline via r.o. injection. For resuscitation, mice additionally received subcutaneous injection of 500 μL of normal saline immediately after abdominal closure.
The mouse macrophage cell culture supernatants were analyzed for cytokine levels using ELISA kits (BD Biosciences, CA). […]

CC(C)C[C@H](NC(=O)[C@H](CC(N)=O)NC(=O)[C@H](Cc1c[nH]c2ccccc12)NC(=O)[C@@H](NC(=O)[C@H](CCCCN)NC(=O)[C@H](Cc1ccc(O)cc1)NC(=O)[C@H](CO)NC(=O)[C@H](CO)NC(=O)[C@H](CO)NC(=O)[C@H](CC(=O)O)NC(=O)CNC(=O)[C@@H](N)CCCNC(=N)N)[C@@H](C)O)C(=O)N[C@@H](CCCNC(=N)N)C(=O)N[C@@H](C)C(=O)N[C@@H](Cc1ccccc1)C(=O)NCC(=O)N[C@@H](Cc1c[nH]c2ccccc12)C(=O)N[C@@H](Cc1ccc(O)cc1)C(=O)O [MOP3, RGDSSSYKTWNLRAFGWY] (H-RGDSSSYKTWNLRAFGWY-OH; N-terminus and C-terminus assumed)
lung tissue mRNA levels of IL-1β (PCR): reduced | lung tissue mRNA levels of IL-6 (PCR): reduced | lung tissue mRNA levels of TNFα (PCR): reduced | serum levels of eCIRP (one-time intravenous MOP3 at surgical closure): significantly reduced | systemic IL-6 (serum): attenuated systemic inflammation | systemic TNFα (serum): attenuated systemic inflammation | apoptotic cells in lungs (TUNEL): significantly less apoptotic cells | lung MPO levels: decreased | lung histologic architecture (H&E, lung injury): significantly preserved histologic architecture | serum ALT levels: reduced | serum AST levels: reduced | serum LDH levels: reduced
